Counter-ions that a name gives are not always drawn.

Broadly, the IC50 is the midpoint of a concentration-inhibition curve. A higher IC50 goes with lower potency. As a reminder, the Ki is the dissociation constant of the complex between target and ligand, obtained from inhibition or displacement.

The subject of one assay is sigma receptor. Nature of the assay: Sigma receptor binding, [^3 H]DTG, brain membranes (both sigma-1 and sigma-2 sites). More on the design: species or system guinea pig. The conditions noted are these: Example 5. The protocol: Sigma receptor binding assays using guinea pig brain membrane homogenates and the radioligand [^3 H]DTG were conducted as described by Weber et al.. […] Briefly, frozen whole guinea-pig brains (Biotrol, Indianapolis, Ind.) were homogenized in 10 volumes (w/v) of ice-cold 320 mM sucrose using a Brinkman polytron. The homogenate was centrifuged at 1,000× g for 20 minutes at 4° C. The supernatant was centrifuged at 20,000× g for 20 minutes at 4° C. The resulting pellet was resuspended in 10 initial volumes of 50 mM Tris/HCl buffer at pH 7.4 and centrifuged at 20,000× g for 20 minutes at 4° C. The resulting pellet was resuspended in 5 initial volumes ice-cold 50 mM Tris/Hcl […], and the final volume was adjusted to yield a protein concentration of 3 mg/ml. Aliquots of 20-ml were stored at -70° C. until used, with no detectable loss of binding.
The protein concentration in the 1-ml final incubation volume was 800 ug/ml, corresponding to 32 mg of brain tissue (original wet weight) and to a tissue concentration within the linear range for specific binding. […] Incubations were terminated after 90 minutes at room temperature by addition of 4 ml of ice-cold 50 mM Tris/HCl (pH 7.4) and rapid filtration of the membrane suspension through Whatman GF/B glass-fiber filters under vacuum, using a 48-well cell harvester (Brandel). The filters were washed 2 times with 4 ml of 50 mM Tris/HCl (pH 7.4). Each filter was suspended in 10 ml Cytoscint (ICI), and radioactivity was measured by liquid scintillation spectrometry at a counting efficiency of approximately 50%. IC50 values were determined by non-linear regression analyis.
Further sigma receptor binding assays against [^3 H]DTG and 5HT-1A binding assays were conducted according to the procedure outlined in the previous examples.
Radioligand Binding. […] Briefly, membranes (P2 microsomal fraction) were diluted 1:3 with 50 mM Tris HCl (pH 7.4) and 0.4 mL was combined with 50 μL [^3 H]DTG (1-2 nM final concentration) and 50 μL of competing drug or buffer. After 90 min at room temperature, incubation was terminated by rapid filtration under vacuum through Whatman GF/B glass fiber filters using a Brandel 48-well cell harvester. Filters were washed three times with 5 mL of cold Tris HCl buffer and each filter was suspended in 5 mL of Cytoscint (ICN Biomedical). Radioactivity was measured by liquid scintillation spectrometry at a counting efficiency of 50%.
Consider `CCCc1ccc(CC(C)N(C)CCCc2ccccc2)cc1` (stereo not drawn), for which the “affinity for the sigma receptor, words” value is “highest and most selective affinity for the sigma receptor”.

Staying with this assay, now noted: Example 6.
`CN(CCCCCc1ccccc1)CCCc1ccccc1` [Compound 136]: the “change in sigma affinity, words” value was “doubles affinity”.

As for `CN(CCCCCC1CCCCC1)CC1CCCCC1.Cl` [Compound 152, N-Methyl-N-cyclohexylmethyl-5-cyclohexylpentylamine Hydrochloride], the “change in sigma affinity, words” value is reported as “doubles affinity”.

Still in this assay, the particulars now being: Examples 5 and 6; [^3 H]DTG.
For the compound `O=C(O)C(=O)O.c1ccc(CCCCCNc2ccccc2)cc1` [Compound 135, N-Phenyl-5-phenyl pentyl amine Hydrogen Oxal ate], the “change in sigma receptor affinity vs. analog” value was 6 fold.

The assay is the same for the next values; noted with them: Table 6; [^3 H]DTG.
Take `O=C(c1ccccc1)N1CCNCC1` [Compound 54]: the IC50 is 11800 nM.

As for `c1ccc(C2CCNCC2)cc1` [Compound 58], the IC50 was 2050 nM.

Consider `COc1ccccc1C1(O)CCNCC1` [Compound 61], for which the 50% inhibitory concentration (IC50) was found to be 14800 nM.

`CCCNC1CCc2ccccc2C1` (stereo not drawn) [Compound 63] returned an IC50 of 763 nM.

Compound `c1ccc(CCCNCCc2ccc3ccccc3c2)cc1` [Compound 88] had an IC50 of 53.4 nM.

Take `O=C1c2ccccc2C(=O)N1CCN1CCN(c2ccccc2)CC1` [Compound 95]: the IC50 amounted to 17000 nM.

As to `CCCC(Cc1ccccc1)NCCCc1ccccc1` (stereo not drawn) [Compound 100], the IC50 was 25.6 nM.

On to `CN1CCc2ccccc2C(c2ccccc2)C1` (stereo not drawn) [Compound 102], for which the IC50 amounted to 6690 nM.

`c1cnc(N2CCNCC2)nc1` [Compound 107] registered an IC50 of 10000 nM.

In turn, `CN(CCc1ccccc1)CCc1ccccc1` [Compound 108] had an IC50 of 37.9 nM.

Compound `c1ccc(CNCc2ccccc2)cc1` [Compound 109] showed a concentration for half-maximal inhibition (IC50) of 184 nM.

The compound `CCC[C@@H](Cc1ccccc1)N(C)CCCc1ccccc1` [Compound 116] showed an IC50 of 10.1 nM.

The compound `O=C1c2ccccc2C(=O)N1CCCCN1CCN(Cc2ccccc2)CC1` [Compound 119] displayed an IC50 of 21.4 nM.

`CCCCCCN(C)CCc1ccccc1` [Compound 130, N-Methyl-N-hexyl-2-phenylethylamine Hydrogen Oxalate] had a 50% inhibitory concentration (IC50) of 4.23 nM.

As for `CCCCCCN(C)CCC` [Compound 131, N-Methyl-N-propylhexylamine Hydrogen Oxalate], the 50% inhibitory concentration (IC50) came to 46.9 nM.

`CCCN(CCCc1ccccc1)[C@@H](C)Cc1ccccc1` [Compound 133] came in with an IC50 of 6.44 nM.

Regarding `O=C(O)C(=O)O.c1ccc(CCCCCNc2ccccc2)cc1` [Compound 135, N-Phenyl-5-phenyl pentyl amine Hydrogen Oxal ate], the 50% inhibitory concentration (IC50) was found to be 13.5 nM.

`CN(CCCCCc1ccccc1)CCCc1ccccc1` [Compound 136]: the half-maximal inhibitory concentration (IC50) was 1.78 nM.

In the case of `c1ccc(CCCCCN2CCN(CCCCCc3ccccc3)CC2)cc1` [Compound 138], the concentration for half-maximal inhibition (IC50) was 2.67 nM.

In turn, `COc1ccccc1CCNCCCCCc1ccccc1` [Compound 144] came in with an IC50 of 4.39 nM.

`COc1cccc(CCNCCCCCc2ccccc2)c1` [Compound 145] had an IC50 of 1.63 nM.

`COc1ccc(CCNCCCCCc2ccccc2)cc1` [Compound 146] showed an IC50 of 2.38 nM.

For the compound `c1ccc(CN2CCCCC2)cc1` [Compound 147], the IC50 turned out to be 117 nM.

In turn, `OC1(c2ccccc2)CCN(CCc2ccccc2)CC1` [Compound 148] yielded an IC50 of 6.43 nM.

As for `CC(C)(C)C1(O)CCN(CCc2ccccc2)CC1` [Compound 149], the half-inhibitory concentration (IC50) turned out to be 21.5 nM.

As to `C1CCC(CCCCCN2CCCCC2)CC1` [Compound 150], the 50% inhibitory concentration (IC50) turned out to be 0.96 nM.

`C(CCNCC1CCCCC1)CCC1CCCCC1` [Compound 151, H-Cyclohexylmethyl-5-cyclohexylpentylamine Hydrochloride] registered an IC50 of 1.39 nM.

`CN(CCCCCC1CCCCC1)CC1CCCCC1.Cl` [Compound 152, N-Methyl-N-cyclohexylmethyl-5-cyclohexylpentylamine Hydrochloride] showed a 50% inhibitory concentration (IC50) of 1.76 nM.

In the case of `OC1(c2ccccc2)CC2CCC(C1)N2CCCCCc1ccccc1` (stereo not drawn) [Compound 153], the 50% inhibitory concentration (IC50) was 2.21 nM.

Regarding `CN1C2CCC1CC(O)(c1ccccc1)C2` (stereo not drawn) [Compound 154], the concentration for half-maximal inhibition (IC50) came to 3960 nM.

Regarding `CN1CCC(O)(c2ccccc2)CC1` [Compound 155], the IC50 worked out at 1870 nM.

The assay is the same for the next values; noted with them: running text, Examples 5 and 6; read-out: sigma receptor Ki.
Consider `CCCN(C)CCCCCc1ccccc1` [Compound 122], for which the Ki came out at 2.4 nM.

Consider `CCCCCCN(C)CCc1ccccc1` [Compound 130, N-Methyl-N-hexyl-2-phenylethylamine Hydrogen Oxalate], for which the Ki worked out at 3.8 nM.

Take `CCCCCCN(C)CCC` [Compound 131, N-Methyl-N-propylhexylamine Hydrogen Oxalate]: the inhibitory constant (Ki) was 45 nM.

For `O=C(O)C(=O)O.c1ccc(CCCCCNc2ccccc2)cc1` [Compound 135, N-Phenyl-5-phenyl pentyl amine Hydrogen Oxal ate], the Ki was 12 nM.

The values above are taken from US6057371A, “Sigma receptor ligands and the use thereof” (Virginia Commonwealth University, priority 1992, dated 2000).
